{
  "source": "patent US8865864B2",
  "about": "“Mutant epidermal growth factor polypeptides with improved biological activity and methods of their making and use” (The Board of Trustees of the Leland Stanford Junior …, priority 2011, dated 2014)",
  "key": {"[1]": {"test_system": "BJ-5ta cells", "assay": "Cell proliferation assay ([3H]TdR incorporation)", "assay_type": "cell-based, human", "conditions": "for level of cell proliferation ([3H]TdR incorporation): 1 nM dose, CFPS-produced protein", "method": "BJ-5ta cells, human immortalized foreskin fibroblast cells that express human EGFR (American Type Culture Collection), were plated in 96-well plates at a density of 2500 cells per well in 100 μl of full medium [Dulbecco's modified Eagle's medium (DMEM)] supplemented with 1% penicillin/streptomycin (Pen/Strep), 1% I-glutamine, 1% sodium pyruvate, 20% M199, and 10% fetal bovine serum. All cell culture reagents were from invitrogen. After 24 h, cells were serum-starved for 48 h in serum-free medium (DMEM supplemented with 1% Pen/Strep, 1% I-glutamine, 1% sodium pyruvate, and 20% M199). The medium was then replaced with 100 μl of serum-free medium containing the indicated concentrations of treatment protein.\nWhen indicated, the standard serum-free medium used during protein treatment was replaced with advanced media (Advanced DMEM supplemented with 1% Pen/Strep, 1% I-glutamine, 1% sodium pyruvate, and 20% M199) or supplemented with human recombinant insulin. […]\n[3H]TdR incorporation was measured 24 h later by freezing the plates at −80° C. overnight, thawing the plates at room temperature, harvesting the cells onto glass fiber filter mats (Perkin Elmer) with a Mach IIIM Harvester (Tomtec), and performing scintillation counting with a Wallac MicroBeta Counter (Perkin Elmer).\nBJ5ta cells were plated in 96-well plates at densities of 2,500 cells/well (BJ5ta), in 100 μl of complete medium. […] 3H-TdR incorporation was measured 24 h later by freezing the cells overnight at −80° C. and harvesting the cells onto glass fiber filtermats (Perkin Elmer) using a Mach IIIM harvester (Tomtec). […]\nBJ-5ta cells were plated in 96-well plates at a density of 5,000 cells/well and 2,500 cells/well, respectively, in 100 μl of medium. […] 3H-TdR incorporation was measured 24 h later by harvesting the cells onto glass fiber filtermats (Perkin Elmer, Waltham, Mass.) using a Mach IIIM harvester (Tomtec, Hamden, Conn.) and performing scintillation counting with a Wallac MicroBeta (Perkin Elmer, Waltham, Mass.)."}, "[2]": {"test_system": "BJ5ta cells", "assay": "Chemotactic cell migration assay, BJ-5ta", "assay_type": "cell-based, human", "conditions": "0.3 nM, 3-hour exposure", "method": "Non-migrated cells were removed by wiping the upper side of the membrane with a cotton swab. The transwells were washed three times with PBS, fixed with methanol, and stained with modified Giemsa. Pictures were taken of the migrated stained cells in nine random high-powered fields (20×) using light microscopy, and the number of migrated cells was counted.\nCostar transwells (Corning 3422, 8.0 μm pores, 6.5 mm diameter) were coated on both sides with 10 μg/ml bovine fibronectin (Sigma F1141-2MG, 1 mg/ml) overnight at 4° C. in buffer (50 mM Tris-HCl, 500 mM NaCl, pH 7.5), Transwells were then washed 3 times with PBS, and then blocked with PBS with 1% BSA (PBS/BSA) at 37° C. for 1 hr prior to usage. […] Non-migrated cells were removed by wiping the upper side of the membrane with Q-tips. […] Pictures were taken of the migrated-stained cells in nine random high-powered fields (20×) using light microscopy, and the number of migrated cells was counted using ImageJ software.\nCostar transwells (8.0 μm pores, 6.5 mm diameter) were coated on both sides with bovine fibronectin (10 μg/ml) overnight at 4° C. washed 3 times with PBS, and then blocked with 1% bovine serum albumin (BSA) in PBS at 37° C. for 1 h prior to usage. […] Pictures were taken of the migrated-stained cells in nine random high powered fields (20×) using light microscopy, and the number of migrated cells were counted."}, "[3]": {"test_system": "NR6WT cells", "assay": "Chemotactic cell migration assay, NR6WT", "assay_type": "cell-based, murine", "conditions": "0.3 nM, 3-hour exposure", "method": "(§1) Costar transwells (8.0 μm pores, 6.5 mm diameter) were coated on both sides with bovine fibronectin (10 μg/ml) overnight at 4° C. washed 3 times with PBS, and then blocked with 1% bovine serum albumin (BSA) in PBS at 37° C. for 1 h prior to usage. […] Non-migrated cells were removed by wiping the upper side of the membrane with a cotton swab. The transwells were washed three times with PBS, fixed with methanol, and stained with modified Giemsa. Pictures were taken of the migrated-stained cells in nine random high powered fields (20×) using light microscopy, and the number of migrated cells were counted."}, "[4]": {"test_system": "BALB/3T3 cells", "assay": "Chemotactic cell migration assay, BALB/3T3", "assay_type": "cell-based", "conditions": "0.3 nM, 3-hour exposure", "method": "as §1"}, "[5]": {"test_system": "ErbB receptors expressed on the surface of CHO cells", "assay": "EGF ligand specificity on transfected CHO cells", "assay_type": "binding", "conditions": "25 nM, 10 min, CHO cells individually expressing ErbB receptors", "method": "The binding specificities of wild-type and mutant EGF were determined by flow cytometry using CHO cells transfected with EGFR or other ErbB receptor family members. […] Cells were labeled with a FITC-conjugated antibody directed against the N-terminal FLAG epitope tag on EGF and analyzed by flow cytometry."}, "[6]": {"test_system": "hEGFR and mEGFR", "assay": "SPR pH titration binding (Example 3)", "design": "species or system human and murine", "conditions": "200 nM ligand, pH 5.0 to 8.5", "method": "pH titration binding experiments were performed at 25° C. in degassed buffer at various pHs ranging from 5.0 to 8.5. Wild-type and mutant EGF were diluted to 200 nM in pH buffer and flowed over the surface of the hEGFR sensorchip at a flow rate of 20 μL/min for 2 min. The hEGFR and mEGFR surfaces were regenerated as noted above. pH titration binding experiments were performed in triplicate at each pH over flow cells one and two for bath the hEGFR and mEGFR surfaces. The steady-state binding response was measured for each growth factor at the association phase plateau of the sensorgram."}},
  "data": [
    {"substance": "L47D: EGF point mutant, leucine 47 substituted with aspartic acid, used in mock libraries (NSDSECPLSHDGYCLHDGVCMYIEALDKYACNCVVGYIGERCQYRDDKWWELR; not fully specified; Epidermal growth factor; UniProt P01133 971-1023, looked up, variant L47D)", "values": [
      {"measurement": "level of cell proliferation ([3H]TdR incorporation)", "setting": "[1]", "value": "intermediate"}
    ]},
    {"substance": "L47R: EGF point mutant, leucine 47 substituted with arginine, used in mock libraries (NSDSECPLSHDGYCLHDGVCMYIEALDKYACNCVVGYIGERCQYRDRKWWELR; not fully specified; Epidermal growth factor; UniProt P01133 971-1023, looked up, variant L47R)", "values": [
      {"measurement": "level of cell proliferation ([3H]TdR incorporation)", "setting": "[1]", "value": "low"}
    ]},
    {"substance": "m123: high-affinity mutant EGF SEQ ID NO:17: NSYSECPPSYDGYCLHDGVCRYIEALDSYACNCVVGYAGERCQYRDLRWWGRR", "values": [
      {"measurement": "cell proliferation compared to wild-type EGF", "setting": "[1]; varying concentrations, 72 hours", "value": "no significant changes in the levels of cell proliferation"},
      {"measurement": "chemotactic migration compared to wild-type EGF, BJ-5ta", "setting": "[2]", "value": "increased chemotactic migration"},
      {"measurement": "chemotactic migration compared to wild-type EGF, NR6WT", "setting": "[3]", "value": "increased chemotactic migration"},
      {"measurement": "chemotactic migration compared to wild-type EGF, BALB/3T3", "setting": "[4]", "value": "increased chemotactic migration"},
      {"measurement": "ErbB binding specificity", "setting": "[5]", "value": "bound specifically to EGFR but not to other ErbB receptor family members"},
      {"measurement": "pH sensitivity of steady-state binding to EGFR", "setting": "[6]", "value": "much less so"}
    ]}
  ]
}
